Patent US9969755B2, “Photodynamic therapy photosensitizers” (The Royal Institution for the Advancement of …, priority 2016, dated 2018)
Values joined by “and” are separate entries in the source; they are usually repeats but may differ in a detail not shown here. Identical values can stand only once.

How the values were obtained:
Type in all cases: physicochemical
[1] = Gibbs free energy for photoinduced electron transfer (equation 6); settings: for ΔGeT (Singlet), Gibbs free energy for PeT: PeT from chromanol to singlet excited state; for ΔGeT (Triplet), Gibbs free energy for PeT: PeT from chromanol to triplet excited state, endergonic
Description: Consistent with quenching of the singlet via PeT from the chromanol segment, the Gibbs free energy for photoinduced electron transfer (ΔGeT^0) was exergonic for compounds 7 and 8, in the range of 0.4 eV (see Table 3).
Based on these calculations ΔGeT^0 for PeT from the chromanol to the triplet excited state of 3-6 was endergonic, ca. 0.27 eV, accounting for the small intermolecular rate constant of quenching measured for these compounds in the presence of either PMHC or trolox, and for the long triplet decay rate constant kT recorded for compound 8. Importantly, the efficiency of PeT also relies in the distance between the trap segment and the photosensitizers a factor that may additionally contribute to the differences observed between compound 7 (methylene linker) and compound 8 (ester linker).

[2] = ^1O2 quantum yield and lifetime, ^1O2 phosphorescence at 1270 nm (direct method); settings: for ΦΔ^D (singlet oxygen quantum yield, direct): ^1O2 phosphorescence at 1270 nm, air equilibrated acetonitrile
Procedure: The generation of singlet oxygen and its lifetime were determined from ^1O2 phosphorescence decay curves recorded at 1270 nm upon excitation with a 532 nm Nd:YAG laser. A total of 3 laser shots were applied to acquire a trace. […] Quantum yield of ^1O2 production (φΔ^D) were calculated comparing the intensity of ^1O2 phosphorescence at 1270 nm for the corresponding photosensitizer with that recorded for Rose Bengal (φΔ=0.54).^81

[3] = Absorption and steady-state fluorescence, fluorescence quantum yield in acetonitrile; settings: for abs λmax / em λmax / Φf (fluorescence quantum yield) / ε (extinction coefficient): acetonitrile, room temperature; for drop in φf following inclusion of I or Br atoms: relative to unsubstituted analogue (1 for 3 and 4; 2 for 5 and 6)
Procedure: Absorption spectra were recorded using a Hitachi U-2800 UV-vis-NIR spectrophotometer. Luminescence spectra were recorded using a PTI QuantaMaster spectrofluorimeter using 10×10 mm quartz cuvettes and corrected for detector sensitivity.
The steady-state fluorescence spectra were recorded between 500-800 nm (depending on each compound) upon exciting at the wavelength of the absorbance maxima. The excitation and emission slits were tuned according to the fluorescence quantum yield of each BODIPY (i.e. for compound 7 excitation slits were 5 nm and for compound 4 we used 2 nm). Fluorescence was recorded every 1 nm using 0.1 s integration time. For the Fluorescence lifetime measurements, the excitation rate was 10 MHz, and the detection frequency was less than 100 kHz. Photons were collected at the magic angle. The fluorescence decay traces were fit using FluoFit (Picoquant) software. For steady-state and time-resolved fluorescence measurements a quartz cuvette with a 10 mm path length was used and all the solutions were prepared in air equilibrated acetonitrile.
Quantum yields of fluorescence were measured using PM605 in acetonitrile as a reference. Absorption and emission spectra of PM605 and the dye of interest were measured in acetonitrile at five different concentrations. The integrated intensity versus absorbance were then plotted and fitted linearly. Relative quantum yields of fluorescence for the unknown with respect to the standard were obtained from equation 1, where φ, Δ, and n refer, respectively, to the quantum yield, the slope obtained from the above-mentioned plot, and the solvent refractive index for the unknown (x) or standard (st).

[4] = Laser flash photolysis: triplet excited state decay and quenching; settings: for kq (triplet quenching rate constant) Q = PMHC: Ar saturated acetonitrile; for Triplet decay rate constant kT: T-T absorption at 430 nm or 550 nm, argon saturated solutions; for kT (triplet decay rate constant) Air equilibrated / kT (triplet decay rate constant) Argon Purged / kq (triplet quenching rate constant) Q = ^3O2: acetonitrile; for kq (triplet quenching rate constant) Q = ^3O2: calculated with oxygen solubility 2.42 mM
Procedure: The 500 mJ/pulse laser output was attenuated yielding 10 mJ laser pulses of 6 ns in duration. Samples were prepared in acetonitrile. The final absorbance of the BODIPY dyes was 0.1. The concentration was kept low to avoid triplet-triplet annihilation. Each sample was de-oxygenated by purging with argon gas for at least 30 min. Quartz cells containing 10×10 mm path length were used. The decay of the BODIPYs was monitored between 420-440 and 520-550 nm (depending the BODIPY) following the laser excitation. Samples were irradiated with a total of 6 laser shots to acquire the temporal evolution of ΔOD.
A second layer of control was subsequently tested via LFP studies, to monitor the extent to which the trap segment deactivates the triplet excited state of the photosensitizes. […] The two quenchers emulate the trap segments utilized in 7 and 8, respectively.

[5] = Time-resolved fluorescence (fluorescence lifetime, TCSPC); settings: for increase in kdec upon halogen substitution: 4 vs 1, 6 vs 2, 3 vs 1, 5 vs 2; for kdec (fluorescence decay rate constant) / knr (non-radiative decay rate constant, (1−φf)×kdec) / krad (radiative rate constant, φf×kdec): acetonitrile, room temperature
Procedure: Fluorescence lifetime measurements were carried out using a Picoquant Fluotime 200 time correlated single photon counting (TCSPC) setup employing an LDH-P-C-470 picosecond diode laser (Picoquant) with an excitation wavelength at 466 nm as the excitation source. The laser was controlled by a PDL 800 B picosecond laser driver from Picoquant. ^1HNMR spectra were recorded on a Bruker AV 400 instrument at 400 MHz. ^13CNMR spectra were recorder on a Varian VNMRS 500 instrument at 125 MHz. ESI mass spectra were measured on a Bruker maXis impact. Laser Flash Photolysis (LFP) experiments were carried out in a commercially available Luzchem 212 LFP setup provided with a Tektronix TDS 2000 digitizer for signal capture. A Nd:Yag laser (Continuum model Surelite I-10 using a second harmonic generators, model number SL-SHG-T1) was used for excitation at a wavelength of 532 nm. Phosphorescence experiments were recorded using a Cary Eclipse Fluorescence Spectrophotometer. Singlet Oxygen phosphorescence was recorded with a Hamamatsu NIR detector (peltier cooled at −62.8° C. operating at 800 V, coupled to a grating monochromator) upon excitation with a 532 nm Nd:YAG laser. A customized Luzchem Research LFP-111 system was employed to collect and process the data. The steady-state fluorescence spectra were recorded between 500-800 nm (depending on each compound) upon exciting at the wavelength of the absorbance maxima. The excitation and emission slits were tuned according to the fluorescence quantum yield of each BODIPY (i.e. for compound 7 excitation slits were 5 nm and for compound 4 we used 2 nm). Fluorescence was recorded every 1 nm using 0.1 s integration time. For the Fluorescence lifetime measurements, the excitation rate was 10 MHz, and the detection frequency was less than 100 kHz. Photons were collected at the magic angle. The fluorescence decay traces were fit using FluoFit (Picoquant) software. For steady-state and time-resolved fluorescence measurements a quartz cuvette with a 10 mm path length was used and all the solutions were prepared in air equilibrated acetonitrile.

SMILES | ΔGeT (Singlet), Gibbs free energy for PeT [1] [eV] | ΔGeT (Triplet), Gibbs free energy for PeT [1] [eV] | ΦΔ^D (singlet oxygen quantum yield, direct) [2] | E00 (HOMO-LUMO gap from intercept of normalized absorption and emission spectra) [3] [eV] | abs λmax [3] [nm] | em λmax [3] [nm] | Φf (fluorescence quantum yield) [3] | ε (extinction coefficient) [3] [M⁻¹ cm⁻¹] | drop in φf following inclusion of I or Br atoms [3] | kq (triplet quenching rate constant) Q = PMHC [4] | Triplet decay rate constant kT [4] [s⁻¹] | kT (triplet decay rate constant) Air equilibrated [4] | kT (triplet decay rate constant) Argon Purged [4] | kq (triplet quenching rate constant) Q = ^3O2 [4] | increase in kdec upon halogen substitution [5] | kdec (fluorescence decay rate constant) [5] | knr (non-radiative decay rate constant, (1−φf)×kdec) [5] | krad (radiative rate constant, φf×kdec) [5] | further results
CC(=O)OCC1=C2C(C)=C(Br)C(C)=[N+]2[B-](F)(F)n2c(C)c(Br)c(C)c21 [Compound 6, 8-Acetoxymethyl-2,6-dibromo-1,3,5,7-tetramethyl Pyrromethene Fluoroborate] | −0.43 | 0.287 | 0.84 ± 0.02 | 2.25 | 543 | 562 | 0.14 ± 0.02 | 81000 | ~6 fold | 2.23 ± 0.05 × 10^8 M^−1s^−1 | 27000 | 6.67 ± 0.04 × 10^6 s^−1 | 2.72 ± 0.03 × 10^4 s^−1 | 2.80 ± 0.02 × 10^9 M^−1s^−1 | 4.5 fold | 66.7 ± 0.3 × 10^7 s^−1 | 57.4 ± 0.2 × 10^7 s^−1 | 9.3 ± 0.1 × 10^7 s^−1 | –
CC1=C(I)C(C)=[N+]2C1=C(C)c1c(C)c(I)c(C)n1[B-]2(F)F [Compound 3, 2,6-diiodo-1,3,5,7,8-pentamethyl-pyrromethene fluoroborate] | −0.37 | 0.262 | 0.81 and 0.81 ± 0.02 | 2.33 | 521 | 545 | 0.03 ± 0.01 | 83000 | 27 fold | 1.20 ± 0.05 × 10^8 M^−1s^−1 | 17000 | 4.35 ± 0.02 × 10^6 s^−1 | 1.68 ± 0.02 × 10^4 s^−1 | 1.82 ± 0.03 × 10^9 M^−1s^−1 | ca. 27 fold | 476.2 ± 0.7 × 10^7 s^−1 | 463.0 ± 0.7 × 10^7 s^−1 | 13.1 ± 0.2 × 10^7 s^−1 | photodegradation ([2]; under 532 nm irradiation, presumably via photooxidation): photodegrade at a slightly larger pace than 5
CC(=O)OCC1=C2C(C)=C(I)C(C)=[N+]2[B-](F)(F)n2c(C)c(I)c(C)c21 [Compound 5, 8-Acetoxymethyl-2,6-diiodo-1,3,5,7-tetramethyl Pyrromethene Fluoroborate] | −0.4 | 0.269 | 0.98 and 0.98 ± 0.03 | 2.21 | 550 | 572 | 0.02 ± 0.01 | 96000 | ca. 44 fold | 3.95 ± 0.07 × 10^8 M^−1s^−1 | 17000 | 7.14 ± 0.04 × 10^6 s^−1 | 1.64 ± 0.02 × 10^4 s^−1 | 3.01 ± 0.01 × 10^9 M^−1s^−1 | ~42 fold | 625.0 ± 0.7 × 10^7 s^−1 | 582.0 ± 0.7 × 10^7 s^−1 | 12.5 ± 0.2 × 10^7 s^−1 | –
CC1=C(Br)C(C)=[N+]2C1=C(CC1(C)CCc3c(C)c(O)c(C)c(C)c3O1)c1c(C)c(Br)c(C)n1[B-]2(F)F (centres unmarked) [Compound 7, 8-((6-Hydroxy-2,5,7,8-tetramethylchroman-2-yl)-methyl)-2,6-dibromo-1,3,5,7-tetramethyl] | – | – | – | – | 532 | 557.4 | – | 56000 | – | – | – | – | – | – | – | – | – | – | ^1O2 generation ([2]; freshly prepared solutions): no ^1O2 generation; drop in φf caused by the trap segment ([3]; 7 compared to reference 4, 8 compared to 5): ca. 25 fold; intramolecular electron transfer rate constant from the singlet state (keT) ([3]; based on φf≤0.008): ≥ 1e+10 s⁻¹; triplet-triplet absorption ([4]; in contrast to precursor 4): unable to detect any triplet-triplet absorption
CC1=C(Br)C(C)=[N+]2C1=C(C)c1c(C)c(Br)c(C)n1[B-]2(F)F [Compound 4, 2,6-dibromo-1,3,5,7,8-pentamethyl-pyrromethene fluoroborate] | −0.38 | 0.282 | 0.72 ± 0.02 | 2.37 | 515 | 535 | 0.20 and 0.20 ± 0.02 | 79000 | ~4 fold | 1.29 ± 0.04 × 10^8 M^−1s^−1 | 27000 | 4.55 ± 0.03 × 10^6 s^−1 | 2.70 ± 0.02 × 10^4 s^−1 | 1.91 ± 0.02 × 10^9 M^−1s^−1 | 3.1 fold | 55.3 ± 0.2 × 10^7 s^−1 | 44.2 ± 0.2 × 10^7 s^−1 | 11.0 ± 0.2 × 10^7 s^−1 | –
